Test results from ChEMBL document CHEMBL3885881, “DrugMatrix”.

Species on record: Rattus norvegicus
Test: DrugMatrix - Regimen: Daily Repeat
Format: toxicity, organism-based, Sprague-Dawley
Parameters: regimen Daily Repeat, gender Male, age 6-8 weeks
Details: in vivo, po, route oral GAVAGE, vehicle .5 % CMC; for ABSOLUTE BASOPHIL / BASOPHIL / EOSINOPHIL / ERYTHROCYTE COUNT / HEMATOCRIT / HEMOGLOBIN / LEUKOCYTE COUNT / LYMPHOCYTE / MEAN CORPUSCULAR HEMOGLOBIN / MEAN CORPUSCULAR HEMOGLOBIN CONCENTRATION / MEAN CORPUSCULAR VOLUME / MONOCYTE / NEUTROPHIL / PLATELET COUNT: tissue Blood; for ALANINE AMINOTRANSFERASE / ALKALINE PHOSPHATASE / ASPARTATE AMINOTRANSFERASE / BLOOD UREA NITROGEN / CHLORIDE / CHOLESTEROL / CREATINE PHOSPHOKINASE / CREATININE / GLUCOSE / PHOSPHORUS / POTASSIUM / SODIUM / TOTAL BILIRUBIN / TOTAL PROTEIN: tissue Plasma
[1] = 0 mg/kg, 72 h, dose level Control, time 3 day
[2] = 0 mg/kg, 120 h, dose level Control, time 5 day
[3] = 32 mg/kg, 72 h, dose level Low, time 3 day
[4] = 32 mg/kg, 120 h, dose level Low, time 5 day
[5] = 320 mg/kg, 72 h, dose level High, time 3 day
[6] = 320 mg/kg, 120 h, dose level High, time 5 day

C1CCC(C(CC2CCCCN2)C2CCCCC2)CC1 (stereo not drawn) [PERHEXILINE]
ABSOLUTE BASOPHIL [1]: 16.7 cells/µL
BASOPHIL [1]: 0.17%
EOSINOPHIL [1]: 0.62%
ERYTHROCYTE COUNT [1]: 6.55 x10E6/uL
HEMATOCRIT [1]: 42%
HEMOGLOBIN [1]: 13.48 G/DL
LEUKOCYTE COUNT [1]: 8.79 x10E3/uL
LYMPHOCYTE [1]: 76.98%
MEAN CORPUSCULAR HEMOGLOBIN [1]: 20.57 pg
MEAN CORPUSCULAR HEMOGLOBIN CONCENTRATION [1]: 32.08 G/DL
MEAN CORPUSCULAR VOLUME [1]: 64.1 fL
MONOCYTE [1]: 2.12%
NEUTROPHIL [1]: 19%
PLATELET COUNT [1]: 1432.17 x10E3/uL
ALANINE AMINOTRANSFERASE [1]: 42.83 u/L
ALKALINE PHOSPHATASE [1]: 328.5 u/L
ASPARTATE AMINOTRANSFERASE [1]: 78.33 u/L
BLOOD UREA NITROGEN [1]: 14.5 mg/dL
CHLORIDE [1]: 104.5 MEQ/L
CHOLESTEROL [1]: 78.67 mg/dL
CREATINE PHOSPHOKINASE [1]: 282.33 u/L
CREATININE [1]: 0.25 mg/dL
GLUCOSE [1]: 173.67 mg/dL
PHOSPHORUS [1]: 12.83 mg/dL
POTASSIUM [1]: 6.7 MEQ/L
SODIUM [1]: 145.83 MEQ/L
TOTAL BILIRUBIN [1]: 0.4 mg/dL
TOTAL PROTEIN [1]: 5.93 G/DL
ABSOLUTE BASOPHIL [2]: 28 cells/µL
BASOPHIL [2]: 0.26%
EOSINOPHIL [2]: 0.44%
ERYTHROCYTE COUNT [2]: 6.99 x10E6/uL
HEMATOCRIT [2]: 45.12%
HEMOGLOBIN [2]: 14.26 G/DL
LEUKOCYTE COUNT [2]: 9.42 x10E3/uL
LYMPHOCYTE [2]: 79.92%
MEAN CORPUSCULAR HEMOGLOBIN [2]: 20.44 pg
MEAN CORPUSCULAR HEMOGLOBIN CONCENTRATION [2]: 31.62 G/DL
MEAN CORPUSCULAR VOLUME [2]: 64.6 fL
MONOCYTE [2]: 2.2%
NEUTROPHIL [2]: 16.14%
PLATELET COUNT [2]: 1062.2 x10E3/uL
ALANINE AMINOTRANSFERASE [2]: 44 u/L
ALKALINE PHOSPHATASE [2]: 342.6 u/L
ASPARTATE AMINOTRANSFERASE [2]: 74.17 u/L
BLOOD UREA NITROGEN [2]: 13 mg/dL
CHLORIDE [2]: 103 MEQ/L
CHOLESTEROL [2]: 72.83 mg/dL
CREATINE PHOSPHOKINASE [2]: 184.67 u/L
CREATININE [2]: 0.47 mg/dL
GLUCOSE [2]: 168.17 mg/dL
PHOSPHORUS [2]: 12.27 mg/dL
POTASSIUM [2]: 6.98 MEQ/L
SODIUM [2]: 147 MEQ/L
TOTAL BILIRUBIN [2]: 0.65 mg/dL
TOTAL PROTEIN [2]: 6.23 G/DL
ABSOLUTE BASOPHIL [3]: 20 cells/µL
BASOPHIL [3]: 0.17%
EOSINOPHIL [3]: 0.47%
ERYTHROCYTE COUNT [3]: 6.84 x10E6/uL
HEMATOCRIT [3]: 42.07%
HEMOGLOBIN [3]: 13.8 G/DL
LEUKOCYTE COUNT [3]: 11 x10E3/uL
LYMPHOCYTE [3]: 83.1%
MEAN CORPUSCULAR HEMOGLOBIN [3]: 20.2 pg
MEAN CORPUSCULAR HEMOGLOBIN CONCENTRATION [3]: 32.8 G/DL
MEAN CORPUSCULAR VOLUME [3]: 61.57 fL
MONOCYTE [3]: 1.9%
NEUTROPHIL [3]: 12.83%
PLATELET COUNT [3]: 1282.33 x10E3/uL
ALANINE AMINOTRANSFERASE [3]: 33.33 u/L
ALKALINE PHOSPHATASE [3]: 346 u/L
ASPARTATE AMINOTRANSFERASE [3]: 61 u/L
BLOOD UREA NITROGEN [3]: 11.67 mg/dL
CHLORIDE [3]: 104.33 MEQ/L
CHOLESTEROL [3]: 65.33 mg/dL
CREATINE PHOSPHOKINASE [3]: 229 u/L
CREATININE [3]: 0.37 mg/dL
GLUCOSE [3]: 183.67 mg/dL
PHOSPHORUS [3]: 13.7 mg/dL
POTASSIUM [3]: 6.87 MEQ/L
SODIUM [3]: 145.33 MEQ/L
TOTAL BILIRUBIN [3]: 0.3 mg/dL
TOTAL PROTEIN [3]: 5.73 G/DL
ABSOLUTE BASOPHIL [4]: 150 cells/µL
BASOPHIL [4]: 1.2%
EOSINOPHIL [4]: 0.5%
ERYTHROCYTE COUNT [4]: 7.42 x10E6/uL
HEMATOCRIT [4]: 47.53%
HEMOGLOBIN [4]: 15.03 G/DL
LEUKOCYTE COUNT [4]: 12.21 x10E3/uL
LYMPHOCYTE [4]: 82.57%
MEAN CORPUSCULAR HEMOGLOBIN [4]: 20.33 pg
MEAN CORPUSCULAR HEMOGLOBIN CONCENTRATION [4]: 31.7 G/DL
MEAN CORPUSCULAR VOLUME [4]: 64.2 fL
MONOCYTE [4]: 2.13%
NEUTROPHIL [4]: 12.7%
PLATELET COUNT [4]: 1404 x10E3/uL
ALANINE AMINOTRANSFERASE [4]: 34.33 u/L
ALKALINE PHOSPHATASE [4]: 375.33 u/L
ASPARTATE AMINOTRANSFERASE [4]: 68.33 u/L
BLOOD UREA NITROGEN [4]: 11.33 mg/dL
CHLORIDE [4]: 102 MEQ/L
CHOLESTEROL [4]: 67 mg/dL
CREATINE PHOSPHOKINASE [4]: 206.67 u/L
CREATININE [4]: 0.3 mg/dL
GLUCOSE [4]: 187 mg/dL
PHOSPHORUS [4]: 12.13 mg/dL
POTASSIUM [4]: 6.8 MEQ/L
SODIUM [4]: 149.67 MEQ/L
TOTAL BILIRUBIN [4]: 0.3 mg/dL
TOTAL PROTEIN [4]: 6.4 G/DL
ABSOLUTE BASOPHIL [5]: 33.3 cells/µL
BASOPHIL [5]: 0.33%
EOSINOPHIL [5]: 0.4%
ERYTHROCYTE COUNT [5]: 7.33 x10E6/uL
HEMATOCRIT [5]: 45.27%
HEMOGLOBIN [5]: 14.7 G/DL
LEUKOCYTE COUNT [5]: 9.79 x10E3/uL
LYMPHOCYTE [5]: 79.33%
MEAN CORPUSCULAR HEMOGLOBIN [5]: 20.1 pg
MEAN CORPUSCULAR HEMOGLOBIN CONCENTRATION [5]: 32.53 G/DL
MEAN CORPUSCULAR VOLUME [5]: 61.77 fL
MONOCYTE [5]: 1.37%
NEUTROPHIL [5]: 17.17%
PLATELET COUNT [5]: 1599 x10E3/uL
ALANINE AMINOTRANSFERASE [5]: 47 u/L
ALKALINE PHOSPHATASE [5]: 318.5 u/L
ASPARTATE AMINOTRANSFERASE [5]: 61.67 u/L
BLOOD UREA NITROGEN [5]: 9.67 mg/dL
CHLORIDE [5]: 102.33 MEQ/L
CHOLESTEROL [5]: 74 mg/dL
CREATINE PHOSPHOKINASE [5]: 199.67 u/L
CREATININE [5]: 0.33 mg/dL
GLUCOSE [5]: 167 mg/dL
PHOSPHORUS [5]: 14.17 mg/dL
POTASSIUM [5]: 6.63 MEQ/L
SODIUM [5]: 146.33 MEQ/L
TOTAL BILIRUBIN [5]: 0.33 mg/dL
TOTAL PROTEIN [5]: 6 G/DL
ABSOLUTE BASOPHIL [6]: 50 cells/µL
BASOPHIL [6]: 0.5%
EOSINOPHIL [6]: 0.34%
ERYTHROCYTE COUNT [6]: 7.26 x10E6/uL
HEMATOCRIT [6]: 45.84%
HEMOGLOBIN [6]: 14.82 G/DL
LEUKOCYTE COUNT [6]: 10.17 x10E3/uL
LYMPHOCYTE [6]: 80.92%
MEAN CORPUSCULAR HEMOGLOBIN [6]: 20.46 pg
MEAN CORPUSCULAR HEMOGLOBIN CONCENTRATION [6]: 32.36 G/DL
MEAN CORPUSCULAR VOLUME [6]: 63.26 fL
MONOCYTE [6]: 1.18%
NEUTROPHIL [6]: 16.4%
PLATELET COUNT [6]: 1254 x10E3/uL
ALANINE AMINOTRANSFERASE [6]: 48.8 u/L
ALKALINE PHOSPHATASE [6]: 300.75 u/L
ASPARTATE AMINOTRANSFERASE [6]: 75.6 u/L
BLOOD UREA NITROGEN [6]: 12.2 mg/dL
CHLORIDE [6]: 102.2 MEQ/L
CHOLESTEROL [6]: 68.6 mg/dL
CREATINE PHOSPHOKINASE [6]: 173.4 u/L
CREATININE [6]: 0.36 mg/dL
GLUCOSE [6]: 186.4 mg/dL
PHOSPHORUS [6]: 13.36 mg/dL
POTASSIUM [6]: 6.38 MEQ/L
SODIUM [6]: 146.8 MEQ/L
TOTAL BILIRUBIN [6]: 0.28 mg/dL
TOTAL PROTEIN [6]: 5.88 G/DL
